Assay: Hydroxyapatite assay (hydroxyapatite adsorption chromatography, bone-targeting potential)
Format: physicochemical
Conditions: corrected retention K=(retention time-void time)/void; TSK-Gel HA 1000 HPLC column; linear gradient 10 mM to 500 mM sodium phosphate, 0.15 N NaCl, pH 6.8
Procedure: Hydroxyapatite is the principal mineral component of bone. Hydroxyapatite adsorption chromatography is used as an assay to evaluate the bone-targeting potential of both individual bone-targeting moieties (“monomers”) and of pharmaceuticals incorporating bone-targeting groups.
Method: The rentention time of a test compound is measured using a linear gradient from 10 mM sodium phosphate, 0.15 N NaCl, pH=6.8 to 500 mM sodium phosphate, 0.15 N NaCl, […] on a TSK-Gel HA 1000 high pressure liquid chromatography column (7.5 mm×75 mm). The rentention time of the compound is expressed in terms of K=(retention time-void time)/void. This K value is corrected using two reference compounds to correct from inter-column and inter-system variation to obtain a K′ value.
Reference Compounds: K′ values were determined for known bone targeted compounds, the bisphosphonate, alendronate and tetracycline.

NCCCC(O)(P(=O)(O)O)P(=O)(O)O [Alendronate, alendronate]
K′ value: 3.7

From US20030114467A1, “Novel pyrazolo- and pyrrolo-pyrimidines and uses thereof” (priority 2001, published 2003)
